Columns and labels:
Assay type in all cases: functional
Conditions in all cases: read-out: Activity
SF-268 = assay: Cytotoxicity against human SF-268 cells assessed as cell viability at 10 uM incubated for 48 hrs by sulforhodamine B assay relative to control
SNB-19 = assay: Cytotoxicity against human SNB-19 cells assessed as cell viability at 10 uM incubated for 48 hrs by sulforhodamine B assay relative to control
PC-3 = assay: Cytotoxicity against human PC-3 cells assessed as cell viability at 10 uM incubated for 48 hrs by sulforhodamine B assay relative to control
HCT-15 = assay: Cytotoxicity against human HCT-15 cells assessed as cell viability at 10 uM incubated for 48 hrs by sulforhodamine B assay relative to control
Malme-3M = assay: Cytotoxicity against human Malme-3M cells assessed as cell viability at 10 uM incubated for 48 hrs by sulforhodamine B assay relative to control
SNB-75 = assay: Cytotoxicity against human SNB-75 cells assessed as cell viability at 10 uM incubated for 48 hrs by sulforhodamine B assay relative to control
MOLT-4 = assay: Cytotoxicity against human MOLT-4 cells assessed as cell viability at 10 uM incubated for 48 hrs by sulforhodamine B assay relative to control
SK-OV-3 = assay: Cytotoxicity against human SK-OV-3 cells assessed as cell viability at 10 uM incubated for 48 hrs by sulforhodamine B assay relative to control
K562 = assay: Cytotoxicity against human K562 cells assessed as cell viability at 10 uM incubated for 48 hrs by sulforhodamine B assay relative to control
OVCAR-4 = assay: Cytotoxicity against human OVCAR-4 cells assessed as cell viability at 10 uM incubated for 48 hrs by sulforhodamine B assay relative to control
KM12 = assay: Cytotoxicity against human KM12 cells assessed as cell viability at 10 uM incubated for 48 hrs by sulforhodamine B assay relative to control
DU-145 = assay: Cytotoxicity against human DU-145 cells assessed as cell viability at 10 uM incubated for 48 hrs by sulforhodamine B assay relative to control
SK-MEL-5 = assay: Cytotoxicity against human SK-MEL-5 cells assessed as cell viability at 10 uM incubated for 48 hrs by sulforhodamine B assay relative to control
UACC-62 = assay: Cytotoxicity against human UACC-62 cells assessed as cell viability at 10 uM incubated for 48 hrs by sulforhodamine B assay relative to control
NCI-H226 = assay: Cytotoxicity against human NCI-H226 cells assessed as cell viability at 10 uM incubated for 48 hrs by sulforhodamine B assay relative to control
Hs-578T = assay: Cytotoxicity against human HS-578T cells assessed as cell viability at 10 uM incubated for 48 hrs by sulforhodamine B assay relative to control
BT-549 = assay: Cytotoxicity against human BT-549 cells assessed as cell viability at 10 uM incubated for 48 hrs by sulforhodamine B assay relative to control
SF-539 = assay: Cytotoxicity against human SF-539 cells assessed as cell viability at 10 uM incubated for 48 hrs by sulforhodamine B assay relative to control
NCI/ADR-RES = assay: Cytotoxicity against human NCI/ADR-RES cells assessed as cell viability at 10 uM incubated for 48 hrs by sulforhodamine B assay relative to control
A549 = assay: Cytotoxicity against human A549 cells assessed as cell viability at 10 uM incubated for 48 hrs by sulforhodamine B assay relative to control
OVCAR-5 = assay: Cytotoxicity against human OVCAR-5 cells assessed as cell viability at 10 uM incubated for 48 hrs by sulforhodamine B assay relative to control
HCT-29 = assay: Cytotoxicity against human […] cells assessed as cell viability at 10 uM incubated for 48 hrs by sulforhodamine B assay relative to control
HL-60(TB) = assay: Cytotoxicity against human HL-60(TB) cells assessed as cell viability at 10 uM incubated for 48 hrs by sulforhodamine B assay relative to control
OVCAR-3 = assay: Cytotoxicity against human OVCAR-3 cells assessed as cell viability at 10 uM incubated for 48 hrs by sulforhodamine B assay relative to control
COLO 205 = assay: Cytotoxicity against human COLO 205 cells assessed as cell viability at 10 uM incubated for 48 hrs by sulforhodamine B assay relative to control
RXF 393 = assay: Cytotoxicity against human RXF 393 cells assessed as cell viability at 10 uM incubated for 48 hrs by sulforhodamine B assay relative to control
TK-10 = assay: Cytotoxicity against human TK-10 cells assessed as cell viability at 10 uM incubated for 48 hrs by sulforhodamine B assay relative to control
IGROV-1 = assay: Cytotoxicity against human IGROV-1 cells assessed as cell viability at 10 uM incubated for 48 hrs by sulforhodamine B assay relative to control
RPMI-8226 = assay: Cytotoxicity against human RPMI-8226 cells assessed as cell viability at 10 uM incubated for 48 hrs by sulforhodamine B assay relative to control
MCF7 = assay: Cytotoxicity against human MCF7 cells assessed as cell viability at 10 uM incubated for 48 hrs by sulforhodamine B assay relative to control
SK-MEL-28 = assay: Cytotoxicity against human SK-MEL-28 cells assessed as cell viability at 10 uM incubated for 48 hrs by sulforhodamine B assay relative to control
M14 = assay: Cytotoxicity against human M14 cells assessed as cell viability at 10 uM incubated for 48 hrs by sulforhodamine B assay relative to control
HOP-92 = assay: Cytotoxicity against human HOP-92 cells assessed as cell viability at 10 uM incubated for 48 hrs by sulforhodamine B assay relative to control
786-0 = assay: Cytotoxicity against human 786-0 cells assessed as cell viability at 10 uM incubated for 48 hrs by sulforhodamine B assay relative to control
T47D = assay: Cytotoxicity against human T47D cells assessed as cell viability at 10 uM incubated for 48 hrs by sulforhodamine B assay relative to control
MDA-MB-231 = assay: Cytotoxicity against human MDA-MB-231 cells assessed as cell viability at 10 uM incubated for 48 hrs by sulforhodamine B assay relative to control
SN12C = assay: Cytotoxicity against human SN12C cells assessed as cell viability at 10 uM incubated for 48 hrs by sulforhodamine B assay relative to control
HOP-62 = assay: Cytotoxicity against human HOP-62 cells assessed as cell viability at 10 uM incubated for 48 hrs by sulforhodamine B assay relative to control
NCI-H460 = assay: Cytotoxicity against human NCI-H460 cells assessed as cell viability at 10 uM incubated for 48 hrs by sulforhodamine B assay relative to control
SW-620 = assay: Cytotoxicity against human SW-620 cells assessed as cell viability at 10 uM incubated for 48 hrs by sulforhodamine B assay relative to control
UO-31 = assay: Cytotoxicity against human UO-31 cells assessed as cell viability at 10 uM incubated for 48 hrs by sulforhodamine B assay relative to control

SMILES: O=S(=O)(NCCCNc1nccc(-c2c(-c3cccc(F)c3)nc3sccn23)n1)c1ccc(F)cc1
- viability at 10 µM (SF-268): 73.9%
- viability at 10 µM (SNB-19): 95.9%
- viability at 10 µM (PC-3): 58.9%
- viability at 10 µM (HCT-15): 44.5%
- viability at 10 µM (Malme-3M): 102%
- viability at 10 µM (SNB-75): 98.5%
- viability at 10 µM (MOLT-4): 47.1%
- viability at 10 µM (SK-OV-3): 81.6%
- viability at 10 µM (K562): 41.6%
- viability at 10 µM (OVCAR-4): 65.7%
- viability at 10 µM (KM12): 62.7%
- viability at 10 µM (DU-145): 84.5%
- viability at 10 µM (SK-MEL-5): 47.3%
- viability at 10 µM (UACC-62): 35.4%
- viability at 10 µM (NCI-H226): 56.2%
- viability at 10 µM (Hs-578T): 90.1%
- viability at 10 µM (BT-549): 79.9%
- viability at 10 µM (SF-539): 115%
- viability at 10 µM (NCI/ADR-RES): 60%
- viability at 10 µM (A549): 74%
- viability at 10 µM (OVCAR-5): 130%
- viability at 10 µM (HCT-29): 46.2%
- viability at 10 µM (HL-60(TB)): 103%
- viability at 10 µM (OVCAR-3): 83.5%
- viability at 10 µM (COLO 205): 43.7%
- viability at 10 µM (RXF 393): 85%
- viability at 10 µM (TK-10): 99.7%
- viability at 10 µM (IGROV-1): 36.9%
- viability at 10 µM (RPMI-8226): 51%
- viability at 10 µM (MCF7): 70.1%
- viability at 10 µM (SK-MEL-28): 96.9%
- viability at 10 µM (M14): 59.4%
- viability at 10 µM (HOP-92): 102%
- viability at 10 µM (786-0): 73.6%
- viability at 10 µM (T47D): 18.6%
- viability at 10 µM (MDA-MB-231): 94.2%
- viability at 10 µM (SN12C): 71.5%
- viability at 10 µM (HOP-62): 101%
- viability at 10 µM (NCI-H460): 87.8%
- viability at 10 µM (SW-620): 106%
- viability at 10 µM (UO-31): 38.8%

SMILES: Cc1ccc(S(=O)(=O)NCCCNc2nccc(-c3c(-c4cccc(F)c4)nc4sccn34)n2)cc1
- viability at 10 µM (SF-268): 65.9%
- viability at 10 µM (SNB-19): 92.2%
- viability at 10 µM (PC-3): 67.7%
- viability at 10 µM (HCT-15): 47.1%
- viability at 10 µM (Malme-3M): 116%
- viability at 10 µM (SNB-75): 98.7%
- viability at 10 µM (MOLT-4): 53.5%
- viability at 10 µM (SK-OV-3): 75.2%
- viability at 10 µM (K562): 52%
- viability at 10 µM (OVCAR-4): 66.2%
- viability at 10 µM (KM12): 67.3%
- viability at 10 µM (DU-145): 77%
- viability at 10 µM (SK-MEL-5): 57.3%
- viability at 10 µM (UACC-62): 47.8%
- viability at 10 µM (NCI-H226): 53.7%
- viability at 10 µM (Hs-578T): 84.3%
- viability at 10 µM (BT-549): 84.5%
- viability at 10 µM (SF-539): 95.3%
- viability at 10 µM (NCI/ADR-RES): 79.7%
- viability at 10 µM (A549): 73%
- viability at 10 µM (OVCAR-5): 111%
- viability at 10 µM (HCT-29): 37.3%
- viability at 10 µM (HL-60(TB)): 119%
- viability at 10 µM (OVCAR-3): 89%
- viability at 10 µM (COLO 205): 55.5%
- viability at 10 µM (RXF 393): 80.3%
- viability at 10 µM (TK-10): 99.4%
- viability at 10 µM (IGROV-1): 37.8%
- viability at 10 µM (RPMI-8226): 68.2%
- viability at 10 µM (MCF7): 69.4%
- viability at 10 µM (SK-MEL-28): 106%
- viability at 10 µM (M14): 80.7%
- viability at 10 µM (HOP-92): 112%
- viability at 10 µM (786-0): 78.4%
- viability at 10 µM (T47D): 34.5%
- viability at 10 µM (MDA-MB-231): 84.5%
- viability at 10 µM (SN12C): 70.5%
- viability at 10 µM (HOP-62): 101%
- viability at 10 µM (NCI-H460): 65.1%
- viability at 10 µM (SW-620): 79.4%
- viability at 10 µM (UO-31): 33.8%

SMILES: O=S(=O)(NCCNc1nccc(-c2c(-c3cccc(F)c3)nc3sccn23)n1)c1ccc(C(F)(F)F)cc1
- viability at 10 µM (SF-268): 77.8%
- viability at 10 µM (SNB-19): 94.8%
- viability at 10 µM (PC-3): 57%
- viability at 10 µM (HCT-15): 72.6%
- viability at 10 µM (Malme-3M): 115%
- viability at 10 µM (SNB-75): 85%
- viability at 10 µM (MOLT-4): 57.5%
- viability at 10 µM (SK-OV-3): 71.8%
- viability at 10 µM (K562): 73.1%
- viability at 10 µM (OVCAR-4): 85.4%
- viability at 10 µM (KM12): 80.6%
- viability at 10 µM (DU-145): 89.2%
- viability at 10 µM (SK-MEL-5): 84%
- viability at 10 µM (UACC-62): 73.3%
- viability at 10 µM (NCI-H226): 82.8%
- viability at 10 µM (Hs-578T): 82.6%
- viability at 10 µM (BT-549): 79.3%
- viability at 10 µM (SF-539): 103%
- viability at 10 µM (NCI/ADR-RES): 88.8%
- viability at 10 µM (A549): 72.4%
- viability at 10 µM (OVCAR-5): 122%
- viability at 10 µM (HCT-29): 62.8%
- viability at 10 µM (HL-60(TB)): 121%
- viability at 10 µM (OVCAR-3): 92.4%
- viability at 10 µM (COLO 205): 68.3%
- viability at 10 µM (RXF 393): 92.1%
- viability at 10 µM (TK-10): 98.2%
- viability at 10 µM (IGROV-1): 56.6%
- viability at 10 µM (RPMI-8226): 83.8%
- viability at 10 µM (MCF7): 59.3%
- viability at 10 µM (SK-MEL-28): 114%
- viability at 10 µM (M14): 91.4%
- viability at 10 µM (HOP-92): 64%
- viability at 10 µM (786-0): 82.1%
- viability at 10 µM (T47D): 62.5%
- viability at 10 µM (MDA-MB-231): 92.8%
- viability at 10 µM (SN12C): 89.7%
- viability at 10 µM (HOP-62): 102%
- viability at 10 µM (NCI-H460): 94.7%
- viability at 10 µM (SW-620): 110%
- viability at 10 µM (UO-31): 51.7%

Source: ChEMBL document CHEMBL4665642, “Anticancer profile of newly synthesized BRAF inhibitors possess 5-(pyrimidin-4-yl)imidazo[2,1-b]thiazole scaffold” (Bioorg Med Chem, 2019)
